# Reference: patent US20250304952A1, “DNA ELEMENT RESPONSIVE TO EXTRACHROMOSOMAL DNA IN CANCER CELLS” (The Board of Trustees of the Leland Stanford Junior …, priority 2021, published 2025)
# How the values were obtained:
# [1] = system: COLO320-HSR cells; assay: PVT1 promoter-driven NanoLuc luciferase reporter in COLO320-HSR; format: cell-based, human; settings: JQ1 500 nM, 6 hours
# Text: We constructed a plasmid containing the 2 kb PVT1 promoter (chr8: 128,804,981-128,806,980, hg19) or the MYC promoter (chr8: 128,745,990-128,748,526, hg19) driving NanoLuc luciferase (PVT1p-nLuc) and a constitutive thymidine kinase (TK) promoter driving Firefly luciferase as an internal control (FIG. 3b). Briefly, pGL4-tk-luc2 (Promega) was digested with KpnI and PciI. A sequence containing multiple cloning sites ([…]), NanoLuc and BGH polyA sequence were inserted in tandem into the vector using Gibson assembly (NEBuilder DNA assembly mix). Next, the PVT1 promoter or the MYC promoter was inserted into the vector via NheI and SalI digestion to generate the final reporter construct. For the negative control, a minimal promoter ([…]) was used in place of the PVT1 promoter. For constructing plasmids with a cis-enhancer, an enhancer (chr8: 128347148-128348310, hg19; positive H3K27ac mark and looping to the PVT1 promoter in HiChIP, overlapping with BRD4 ChIP peak and ATAC-seq peak in COLO320-DM) was inserted directly 5′ to the promoter into the region with multiple cloning sites. […] Luciferase levels were quantified using Nano-Glo Dual reporter luciferase assay (Promega). The reporter level was calculated as the ratio of NanoLuc reading over firefly reading using Tecan M1000. Mean and standard errors were calculated based on three biological replicates with three technical replicate each.
# [2] = system: ecDNA hubs in COLO320-DM; assay: ecDNA clustering by interphase DNA FISH, autocorrelation g(r); format: cell-based, human; settings: 500 nM, 6 hours
# Text: The Oligopaint FISH probe libraries were constructed as described previously 51 Each oligo consists of a 40 nucleotide (nt) homology to the hg19 genome assemble designed from the algorithm developed from the laboratory of Dr. Ting Wu (https://oligopaints.hms.harvard.edu/). Each library subpool consists of a unique sets of primer pairs for orthogonal PCR amplification and a 20 nt T7 promoter sequence for in vitro transcription and a 20 nt region for reverse transcription. Individual Oligopaint probes were generated by PCR amplification, in vitro transcription, and reverse transcription, in which ssDNA oligos conjugated with ATTO488 and ATTO647 fluorophores were introduced during the reverse transcription step. The Oligopaint covered genomic regions (hg19) used in this study are as follows: chr8: 116967673-118566852 (hg19_COLO_nonecDNA_1.5Mbp), chr8: 127435083-129017969 (hg19_COLO_ecDNA_1.5Mbp), chr8: 128729248-128831223 (hg19_PC3_ecDNA1_100 kb). A ssDNA oligo pool was ordered and synthesized from Twist Bioscience (San Francisco, CA). 15 mm #1.5 round glass coverslips (Electron Microscopy Sciences) were pre-rinsed with anhydrous ethanol for 5 min, air dried, and coated with L-poly lysine solution (100 μg/mL) for at least 2 hours. Fully dissociated ColoDM320 or PC3 cells were seeded onto the coverslips and recovered for at least 6 hours before experiments. Cells were fixed with 4% (v/v) methanol free paraformaldehyde diluted in 1×PBS at room temperature for 10 min. Then cells were washed 2× with 1×PBS and permeabilized in 0.5% Triton-X100 in 1×PBS for 30 min. After 2× wash in 1×PBS, cells were treated with 0.1M HCl for 5 min, followed by 3× washes with 2×SSC and 30 min incubation in 2×SSC+0.1% Tween20 (2×SSCT)+50% (v/v) formamide (EMD Millipore, cat #S4117). […]
# To analyze the clustering of ecDNAs, we applied the autocorrelation function as described previously58 in Matlab (2019). g(r) estimates the probability of detecting another ecDNA signal at increasing distances from the viewpoint of an index ecDNA signal and is equal to 1 for a uniform, random distribution. Specifically, the pair auto-correlation function g(r^→) was calculated by the fast Fourier transform (FFT) method described by the equations below.
# N(r^→) is the auto-correlation of a mask matrix that has the value of 1 inside the nucleus used for normalization. […] Autocorrelation functions were calculated first by converting the Cartesian coordinates to polar coordinates by Matlab cart2pol( ) function, binning by radius and by averaging within the assigned bins. […]
structure (smiles),measurement,setting,value
Cc1sc2c(c1C)C(c1ccc(Cl)cc1)=N[C@@H](CC(=O)OC(C)(C)C)c1nnc(C)n1-2 [JQ1],repression of PVT1p-mediated transcription,[1],~2 fold
same,"ecDNA hub clustering (interphase DNA FISH, autocorrelation g(r))",[2],dispersed ecDNA hubs
